From paper PMC9104013, “Role of Polyamine-Induced Dimerization of Antizyme in Its Cellular Functions” (International Journal of Molecular Sciences, 2022)

Key:
hair follicle cycle = tested on: hair follicle cycle; design: method as in PMID 19956989; conditions: mice; cited from earlier work
ODC = biological target: T1, ODC (Homo sapiens, UniProt P11926); assay: In vitro effect of Spd and its analogues on ODC activity in cytosolic extract; type: biochemical; conditions: 1 mM, ODC-enriched DU145 cell sample, 30 min, +37 °C
T1 construct: ODC-enriched lysate was prepared from subconfluent DU145 cells 6 h after medium change; endogenous in cells; host or cells: DU145 cells (cytosolic extract)
T1 sequence (P11926 1-461): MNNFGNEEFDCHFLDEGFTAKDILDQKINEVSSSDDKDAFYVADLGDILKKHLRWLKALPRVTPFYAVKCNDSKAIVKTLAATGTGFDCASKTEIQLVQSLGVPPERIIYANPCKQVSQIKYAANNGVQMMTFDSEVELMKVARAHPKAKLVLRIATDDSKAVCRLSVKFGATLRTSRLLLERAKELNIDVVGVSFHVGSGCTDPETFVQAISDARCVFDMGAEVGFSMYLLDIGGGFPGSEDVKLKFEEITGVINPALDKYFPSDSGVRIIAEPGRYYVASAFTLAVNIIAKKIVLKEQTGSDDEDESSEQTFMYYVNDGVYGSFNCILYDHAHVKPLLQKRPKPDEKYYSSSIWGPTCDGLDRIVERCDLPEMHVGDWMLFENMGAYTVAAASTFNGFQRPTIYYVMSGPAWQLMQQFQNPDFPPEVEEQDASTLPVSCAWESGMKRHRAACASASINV
Description: ODC-enriched lysate was prepared from subconfluent DU145 cells 6 h after medium change by lysing the cells in buffer containing 25 mM Tris-HCl, pH 7.4, 1 mM DTT, and 0.01% Tween-80. OAZ1-enriched lysate was prepared from OAZ1-overexpressing DU145 cells in the same buffer. The lysate was cleared by centrifugation, and the endogenous polyamines were removed by ultrafiltration through 3K-cutoff filter and washing twice with lysis buffer. In experiment 1, ODC-enriched cytoplasmic extract (~100 μg of total protein) was incubated for 30 min at +37 °C in the presence of 1 mM Spd or analogues before ODC activity assay. In experiment 2, ODC-enriched cytoplasmic extract (~100 μg of total protein) was incubated for 30 min at +37 °C with OAZ1-enriched cytoplasmic extract (~100 μg of total protein) in the presence of 1 mM Spd or analogues before ODC activity assay.

CC(N)CCNCCCCN (centres unmarked) [1-MeSpd]
Hair follicle cycle (hair follicle cycle): activate the hair follicle cycle

NCCCCNCCCN [Spd, spermidine]
Effect of direct addition on ODC activity in vitro (ODC): did not affect ODC activity
